Test results from US8927590B2, “Synthesis of pyrrolidine compounds” (Zealand Pharma A/S, priority 2006, dated 2015).
Where two headings read alike, the source gives them in different places.

Assay: Dynamic vapor sorption (DVS) at a series of relative humidity conditions
Format: physicochemical
Experimental: In some embodiments, the (2S,4R)-1-(2-aminoacetyl)-4-benzamidopyrrolidine-2-carboxylic acid hydrochloride monohydrate is characterized by dynamic vapor sorption (“DVS”). DVS data were collected using Dynamix Vapor Sorption Apparatus (DVS-1) made by Surface Measurement System Ltd. Samples were analyzed by subjecting them to a series of relative humidity (RH) conditions at 25° C. The relative humidity was scanned from about 0% to about 90%.

Row | Structure (SMILES) | reversible change of mass between 0% RH and 10% RH (DVS, 25° C., 0% RH to 10% RH (FIG. 6)) | mass between 10% RH and about 70% RH (DVS, 25° C., 10% RH to about 70% RH (FIG. 6)) | stability of the solid form to changes in humidity (DVS conclusion) (DVS, 25° C., RH cycled about 0% to about 90%) | reversible mass change between about 70% RH and 90% RH (DVS, 25° C., about 70% RH to 90% RH (FIG. 6)) | stability of the solid form to changes in humidity (DVS conclusion) | increase in mass when relative humidity increased from 0% RH to 90% RH (DVS, 25° C., first cycle, 0 to about 1200 min (FIG. 7))
1 | Cl.NCC(=O)N1C[C@H](NC(=O)c2ccccc2)C[C@H]1C(=O)O.O [(2S,4R)-1-(2-aminoacetyl)-4-benzamidopyrrolidine-2-carboxylic acid hydrochloride monohydrate] | about 1.5% | relatively stable mass | sorbed water is reversibly lost and does not appear to adversely affect the integrity of the crystalline form | ~2.5% | – | –
2 | Cl.NCC(=O)N1C[C@H](NC(=O)c2ccccc2)C[C@H]1C(=O)O [(2S,4R)-1-(2-Aminoacetyl)-4-benzamidopyrrolidine-2-carboxylic acid hydrochloride] | – | – | – | – | not stable to environmental changes in humidity | 21.7%
